What all share (type): in vivo, rat
The subject of data set [1] is WAG/Rij rats. Kind of data set: Elevated plus maze (EPM). The following applies: 10 and 100 mg/Kg; p=0.67; FIG. 3B. How it is done:
(§1) To test the effects bCBD and sCBD on epileptic comorbidities, separate groups (n=10) of treated and vehicle WAG/Rij rats at 6 months of age were subjected to several behavioural tests (see below—cohort 2).
(§2) All behavioural tests were performed 1-hour post-dose in the morning. All experimental groups were subjected to a single test per day. […].
The EPM consists of 2 opposing open arms and 2 opposing closed arms of the same size (45 cm×10 cm) with 10 cm high walls connected by a central platform (10×10 cm) and elevated 80 cm above the floor. Rats are positioned in the central platform facing a closed arm and the number of entries into, time spent on each arm, and central platform are measured.
The maze was systematically cleaned (Disposable towels and 70% ethanol solution) to remove olfactory cues, after each animal was tested. The shorter the time spent in open arms and central platform the higher the anxiety is and vice versa. Mean velocity and total distance moved were also measured and examined for every experimental group.

Data set [2] deals with WAG/Rij rats. Kind of data set: EEG recording of spike wave discharges (SWDs), established absence seizures. Particulars: 10 and 100 mg/Kg i.p. twice daily, 14 days; vs control (vehicle); ANOVA across groups; FIG. 2A. Here is the method: The effects of botanically derived purified CBD (>98%) (bCBD) and synthetic CBD (sCBD) at 10 and 100 mg/Kg, i.p. twice daily, for both drugs, was assessed in this animal model, by EEG-recordings and behavioural tests.
WAG/Rij rats were treated with bCBD or sCBD (10 and 100 mg/Kg, i.p. twice daily, for both drugs) over a chronic test period of at least 14 days.
Drug treatment was started at about 6 months of age (n=10 for every dose and drug group) and continued for 14 consecutive days, when experimental tests were performed (treatment was also continued during the experimental procedure phase. Age-matched control (vehicle) WAG/Rij rats (n =10) were kept under the same housing conditions over the same period of time with vehicle (1:1:18, Ethanol:kolliphor HS15:saline; i.p.).
WAG/Rij rats (n=10) underwent 2 EEG-recording periods in 2 consecutive days (one session per day). Every recording session lasted 3 hours and was performed 1 hour after drug administration. […]
All animals were allowed at least 1 week of recovery and handled twice a day. […] The blinded quantification of absence seizures was based on the number and the duration of EEG Spike Wave Discharges (SWDs).
All statistical procedures were performed using GraphPad Prism 6.0 (GraphPad Software, Inc., La Jolla, CA, USA). EEG recordings were subdivided into 30-min epochs, and the duration and number of SWDs were evaluated separately.

Data set [3] concerns WAG/Rij rats. Kind of data set: Forced swimming test (FST). Particulars: for immobility time: sub-chronic, vs control. How it is done: as §1, §2
The FST, is currently the most reliable method to rapidly screen compounds for antidepressant activity in rodents; we used an FST protocol previously standardized in our laboratories for WAG/Rij rats.
Briefly, rats were placed individually for 6 min into a glass cylinder (height 47 cm, diameter 38 cm) filled with 38 cm of water maintained between 23° C. and 25° C. The total duration of immobility (immobility time) was recorded during the last 4 min of a 6-min testing period. The criterion for immobility and passive swimming (immobility time) was floating vertically in the water while making only those movements essential to keep the head above the surface of the water, which is directly proportional to depressive-like behaviour. At the end of the FST, rats were removed and dried with a towel before being returned to their home cage. Mean swimming velocity and total distance moved were also measured and examined for every experimental group in order to check for any obvious locomotor impairment.

The test system of data set [4] is WAG/Rij rats. Kind of data set: Rotarod test (RT). The following applies: 10 and 100 mg/Kg; p=0.9455; data not shown. Here is the method: The Rotarod apparatus (Ugo Basile, Varese, Italy) consists of a base platform and a rotating rod with a diameter of 6 cm and a non-slippery surface. The integrity of motor coordination is assessed on the basis of the time the animals keep their balance on the accelerating rotating rod up to a maximum of 10 min (600 s).
Briefly, rats were pre-trained for 2 days in order to reach a stable performance. After the training, the rotation of the rod was gradually accelerated from 5 rpm to 50 rpm. After a maximum of 3 falls from the rod, the test is suspended and the time is recorded, the result is a mean of the 3 measures.
(In general: The rotarod test checks motor coordination on a turning rod.)

For data set [5], the system named is WAG/Rij rats. Kind of data set: Passive avoidance (PA). Here is the method:
as §1, §2
Rats were tested in a step-through type passive avoidance apparatus (Ugo Basile, Italy, model 40,550), measuring 57×27×30 cm, consisting of a cage divided into two chambers (light and dark) by a sliding door.
The PA test was carried out over two successive days. Briefly, on day one (pre-acquisition trial or habituation), rats were introduced individually in the light compartment and allowed to freely explore the cage for 5 min. The acquisition or conditioning trial was conducted 15 min after habituation. Rats were individually introduced in the light compartment.; following a 30 s adaptation time, the sliding door between the two compartments was opened. When rats completely entered into the dark compartment, the sliding door was automatically closed and an electrical foot-shock (0.5 mA for 3 s) was delivered via the floor grid.
The latency to enter (s) in the dark compartment was detected and analysed. The retention or memory trial was evaluated 24 h after the acquisition trial, by recording their latency to enter (s) in the dark compartment. The latency to enter in the dark compartment was directly linked to the retention memory: the better the memory, the greater the latency.

For data set [6], the system named is WAG/Rij rats. Kind of data set: Novel object recognition test (nORT). How it is done:
as §1, §2
The nORT was performed as previously described by Bartolini et al. with some minor modifications. Briefly, three days before nORT, rats were exposed to a habituation trial lasting 6 min.
During this trial, each rat was allowed to freely explore an opaque open field Plexiglas box (70×70×30 cm). To investigate short-term memory, in the familiarization trial (T1) two identical objects (wood cubes) were located in two opposite corners of the box. Each rat was placed in the centre of the open field, facing away from the sample objects and left to explore freely the objects for a maximum of 5 min, before returning to its home cage. The familiarization trial ended when the rat completed 20 s of exploration for each object.
Exploration was considered directing the nose at a distance <2 cm to the object and/or touching it with the nose and sniffing. After a retention interval of 60 min the test phase (T2) was conducted.
After this session, the rat returned to home cage. The time spent exploring the familiar (F) and the novel object (N) was recorded separately and a discrimination index (DI) was calculated (DI=N−F/N+F). To avoid olfactory cues both the objects and the box were cleaned with 70% ethanol solution after each session.
Furthermore, to avoid place preference, the role (familiar or novel object) and the position of the two objects during T2 were randomly changed. Total distance moved (cm) was also evaluated and analysed for every experimental group in order to check for locomotor deficits.

For data set [7], the system named is WAG/Rij rats. Kind of data set: Three chamber test (TCT), sociability. How it is done: as §1, §2
Three-chambered approach (sociability) is an automated, widely used and well validated assay that compares time that the subject (rodent) spends with a novel animal versus time spent with a non-social inanimate object.
The three-chamber apparatus is a non-transparent white plastic box with two transparent acrylic partitions with a rectangular opening. The acrylic partitions divide the box into three chambers (left, centre, and right), illuminated at 120 lux. The animal is placed in the middle chamber with the dividers closed to allow it to explore the middle chamber for ten minutes.
After this habituation period, an unfamiliar adult animal is placed inside a small wire cage in one of the side chambers. An identical wire cage with an inanimate object is placed in the opposite chamber. The dividers are then raised, allowing the test subject to move freely throughout all three chambers of the apparatus over a 10-minute test session. […]

Molecules are shown by their SMILES.

Consider `C=C(C)[C@@H]1CCC(C)=C[C@H]1c1c(O)cc(CCCCC)cc1O` [sCBD, cannabidiol], for which the anxiety-like behaviour entry in the data set with WAG/Rij rats [1] is recorded as “not affected”. For the same compound, the “mean number of spike wave discharges (nSWDs)” value in the data set on WAG/Rij rats [2] was “did not significantly (F4,45=2.572; p=0.0504; n=10 per group) alter”. Also, the “immobility time, overall” value with WAG/Rij rats [3] (10 and 100 mg/Kg, vs control (vehicle), ANOVA across groups, FIG. 3A) is recorded as “significantly (F4,45=12.29; p<0.0001; n=10 per group) reduce”. Besides, the figures for the immobility time entry in the data set on WAG/Rij rats [3] (higher dose (100 mg/Kg i.p. twice daily)) and in the data set with WAG/Rij rats [3] (lower dose (10 mg/Kg i.p. twice daily)) were “significant reduction” and “not effective”, respectively. Also, the “rotarod test results (motor coordination)” value in the data set with WAG/Rij rats [4] is given as “did not influence”. In addition, the “latency to enter in the dark compartment” value in the data set with WAG/Rij rats [5] (conditioning trial, 10 and 100 mg/Kg, data not shown) is on record as “no significant effect”; in the data set on WAG/Rij rats [5] (retention session, higher dose (100 mg/Kg), vs control) it was “did not significantly modify”; in the data set with WAG/Rij rats [5] (retention session, lower dose (10 mg/Kg), vs control), “did not significantly modify”. In addition, the “discrimination index (DI)” value in the data set with WAG/Rij rats [6] (100 mg/Kg, vs vehicle) is given as “significantly increased”; with WAG/Rij rats [6] (lower dose (10 mg/Kg), vs control), “did not significantly”. Besides, the “discrimination index (DI), overall” value with WAG/Rij rats [6] (10 and 100 mg/Kg, ANOVA across groups, FIG. 3D) is “significantly (F4,45=6.009; p=0.0006; n=10 per group) affect”. For the same compound, in the data set on WAG/Rij rats [7] (100 mg/Kg, sub-chronic), the “time spent in the novel rat chamber vs the novel object chamber” value was “significantly more time in the novel rat chamber”. Further, in the data set with WAG/Rij rats [7] (higher dose (100 mg/Kg), vs control rats, p<0.0001), the “time spent sniffing the novel rats” value was “significantly increased”.
